# Data reported in patent publication US4640922A, “3N-substituted 3,4-dihydropyrimidines as agents for treating disorders of cardiovascular system” (Suntory Limited, priority 1984, dated 1987).
# Like-named read-outs stand apart in the source and are kept apart here.
# Experiments:
# [1] = tested on: coronary artery (isolated heart); test: Coronary vascular dilative effect, isolated perfused guinea pig heart, Langendorff's method (perfusion pressure); conditions: 0.1 ml injected into coronary artery; isolated guinea pig heart, 37° C., 6 ml/minute
# Experimental: The coronary vascular dilative effect of 3N-substituted 3,4-dihydropryrimidine derivatives was tested.
# Heartly guinea pigs (weight 400-500 g) were clubbed dead and their hearts were immediately isolated. The hearts were perfused with Krebs-Henseleit solution bubbled with a mixture of 95% O2 +5% CO2 and maintained at 37° C. at a certain rate of 6 ml/minute according to Langendorff's method [J. Pharmacol. Methods 2, 143 (1979)]. The perfusion pressure was determined by a pressure transducer. Samples were prepared by dissolving 1 mg of a test compound in 1 ml of a mixture of dimethylsulfoxide and physiological saline (1:9) and diluting with physiological saline the solution to the predetermined concentration. 0.1 ml of the diluted solution was administered into the coronary artery via a rubber tube connected to an aorta cannula to obtain ED50 (μg/heart) data as shown in Table 1. The numbers of the compounds in the Table correspond respectively to those of the working examples described above.
# systemic blood pressure = test: Systemic blood pressure (average pressure) in anesthetized dogs; format: in vivo, dog; conditions: Canis lupus familiaris, iv, read-out: Average blood pressure, percentage compared with control
# Experimental: (§1) The pharmacological effects of the compounds of the present invention with respect to the blood flow and blood vessel resistance of vertebral artery and systemic blood pressure (average pressure) in anesthetized dogs. […] The first and second ribs were cut open to expose the left vertebral artery. A probe was attached to the origin of the artery and the blood flow was measured with an electromagnetic rheometer (Model MF-27, product of Nihon Koden K.K.) At the same time, continuous measurement of the following parameters was made: systemic blood pressure (average pressure) at the right femoral artery, the ECG in the second induction period, the heart beat with a tachometer driven by the R wave, and the blood vessel resistance determined by loading a multiplication/division unit (EO-601 G, product of Nihon Koden K.K.) with the average values of blood pressure and blood flow in the vertebral artery. All of these parameters were recorded simultaneously on a polygraph (RM-600, product of Nihon Koden, K.K.) All of the test compounds were injected through a cannula inserted into the femoral […].
# vertebral artery = test: Blood flow and blood vessel resistance of vertebral artery in anesthetized dogs; format: in vivo, dog; conditions: Canis lupus familiaris, iv
# Experimental: as §1
# [2] = 0.001 mg/kg, % of value before administration, average ± standard error, read-out: Vertebral artery vessel resistance, percentage compared with control
# [3] = % of value before administration, average ± standard error, read-out: Vertebral artery blood flow, percentage compared with control
# [4] = % of value before administration, average ± standard error, read-out: Vertebral artery vessel resistance, percentage compared with control
# [5] = read-out: Vertebral artery blood flow, percentage compared with control
# [6] = read-out: Vertebral artery vessel resistance, percentage compared with control
compound,measurement,setting,value
CCOC(=O)N1C(C)=NC(C)=C(C(=O)OC)C1c1cccc([N+](=O)[O-])c1 (stereo not shown) [Compound 14],Pharmacological data ED50,[1],1.1 μg/heart
COC(=O)C1=C(Cl)N=C(C)N(C(=O)OC)C1c1cccc([N+](=O)[O-])c1 (stereo not shown) [Compound 15],Pharmacological data ED50,[1],2.8 μg/heart
CCOC(=O)N1C(C)=NC(Cl)=C(C(=O)OC)C1c1cccc([N+](=O)[O-])c1 (stereo not shown) [Compound 16],Pharmacological data ED50,[1],10.0 μg/heart
CCOC(=O)C1=C(Cl)N=C(C)N(C(=O)OCC)C1c1ccc(SC)cc1 (stereo not shown) [Compound 18],Pharmacological data ED50,[1],0.37 μg/heart
CCOC(=O)C1=C(C)N=C(C)N(C(=O)OCC)C1c1ccc(SC)cc1 (stereo not shown) [Compound 19],Pharmacological data ED50,[1],0.58 μg/heart
CCOC(=O)C1=C(Cl)N=C(C)N(C(=O)OC)C1c1ccc(SC)cc1 (stereo not shown) [Compound 20],Pharmacological data ED50,[1],0.22 μg/heart
CCOC(=O)C1=C(C)N=C(C)N(C(=O)OC)C1c1ccc(SC)cc1 (stereo not shown) [Compound 21],Pharmacological data ED50,[1],1.0 μg/heart
"COC(=O)C1=C(C)NC(C)=C(C(=O)OCCN(C)Cc2ccccc2)C1c1cccc([N+](=O)[O-])c1 (stereo not shown) [Nicardipine, reference compound]",response vs control in vivo at 0.001 mg/kg,"systemic blood pressure; 0.001 mg/kg, % of value before administration, average ± standard error",90 ± 1%
same,response vs control in vivo at 0.003 mg/kg,"systemic blood pressure; 0.003 mg/kg, % of value before administration, average ± standard error",87 ± 2%
same,response vs control in vivo at 0.01 mg/kg,"systemic blood pressure; 0.01 mg/kg, % of value before administration, average ± standard error",80 ± 2%
same,response vs control in vivo at 0.001 mg/kg,"vertebral artery; 0.001 mg/kg, % of value before administration, average ± standard error, read-out: Vertebral artery blood flow, percentage compared with control",123 ± 7%
same,response vs control in vivo at 0.001 mg/kg,vertebral artery; [2],79 ± 4%
same,response vs control in vivo at 0.003 mg/kg,vertebral artery; [3],147 ± 15%
same,response vs control in vivo at 0.003 mg/kg,vertebral artery; [4],67 ± 7%
same,response vs control in vivo at 0.01 mg/kg,vertebral artery; [3],183 ± 13%
same,response vs control in vivo at 0.01 mg/kg,vertebral artery; [4],49 ± 3%
"COC(=O)C1=C(C)NC(C)=C(C(=O)OC)C1c1ccccc1[N+](=O)[O-] [Nifedipine, reference compound]",response vs control in vivo at 0.0001 mg/kg,systemic blood pressure,94%
same,response vs control in vivo at 0.0003 mg/kg,systemic blood pressure,94%
same,response vs control in vivo at 0.001 mg/kg,systemic blood pressure,87%
same,response vs control in vivo at 0.0001 mg/kg,vertebral artery; [5],114%
same,response vs control in vivo at 0.0003 mg/kg,vertebral artery; [5],129%
same,response vs control in vivo at 0.001 mg/kg,vertebral artery; [5],154%
same,response vs control in vivo at 0.0001 mg/kg,"vertebral artery; 0.0001 mg/kg, % of value before administration, read-out: Vertebral artery vessel resistance, percentage compared with control",79%
same,response vs control in vivo at 0.0003 mg/kg,"vertebral artery; 0.0003 mg/kg, % of value before administration, average ± standard error, read-out: Vertebral artery vessel resistance, percentage compared with control",67%
same,response vs control in vivo at 0.001 mg/kg,vertebral artery; [2],57%
"COc1ccc(Cc2nccc3cc(OC)c(OC)cc23)cc1OC [Papaverine, reference compound]",response vs control in vivo at 0.1 mg/kg,systemic blood pressure,93 ± 1%
same,response vs control in vivo at 0.3 mg/kg,systemic blood pressure,83 ± 3%
same,response vs control in vivo at 1 mg/kg,systemic blood pressure,73 ± 4%
same,response vs control in vivo at 0.1 mg/kg,vertebral artery; [5],123 ± 4%
same,response vs control in vivo at 0.3 mg/kg,vertebral artery; [5],151 ± 8%
same,response vs control in vivo at 1 mg/kg,vertebral artery; [5],184 ± 14%
same,response vs control in vivo at 0.1 mg/kg,vertebral artery; [6],78 ± 3%
same,response vs control in vivo at 0.3 mg/kg,vertebral artery; [6],58 ± 3%
same,response vs control in vivo at 1 mg/kg,vertebral artery; [6],43 ± 3%
